Assay results: patent publication US9133266B2, “Vitronectin-derived cell culture substrate and uses thereof” (Wisconsin Alumni Research Foundation, priority 2011, dated 2015)

Key:
H1 cells = assay: Cloning assay; type: cell-based, human
Experimental: To determine how the various vitronectin variants affect cloning efficiency, the vitronectin polypeptide variants were tested in a cloning assay, essentially as described by Chen et al, Cell Stem Cell 7:240-248 (2010), incorporated herein by reference as if set forth in its entirety. Briefly, triplicates for each substrate were prepared in a 12-well plate. Prior to the addition of cells, 500 μL medium was added to each well. Cells were detached from their culture plate and dissociated with TrypLE for 5 minutes or until fully detached. TrypLE was neutralized with equal volumes of basic media, and the cells were counted, washed and then diluted to 5000 cells/mL. 100 μL of this cell suspension (500 cells) was added to each well. Plates were then incubated at 37° C., 5% O2 and 10% CO2 and the medium was changed every 1-2 day(s). After 5-6 days, colonies were stained with an APS kit (Vector Lab) following the manufacturer's instruction and counted.

H1 ES cells = assay: Media component test: survival and proliferation of dissociated ES cells; type: cell-based, human; conditions: for initial survival of human ES cells: added to defined medium, FIG. 6F; for requirement for short-term survival (24 hours) and proliferation (82 hours) of human ES cells: factor removed from TeSR, FIG. 6A; for cell survival and proliferation: FIG. 4A-B
Experimental: (§1) (A) Dissociated H1 ES cells were plated into different media (Table 1) on […]-coated plates, and cell survival was measured 24 hours after plating. […] (B) The same ES cells from FIG. […] (C) Dissociated cells were plated in three different media, and initial survival was measured 22 hours after plating (blue column) Proliferation was measured 129 hours after plating (red column) The three media were TESR™, TESR without L-ascorbic acid (TESR-LAA) and a simplified medium containing DMEM/F 12, NaHCO3 LAA, insulin and FGF2 (*p<0.05, n=3). (D) H1 cells were maintained in defined media (DMEM/F12, NaHCO3, Insulin, FGF2 and LAA) for multiple passages with or without selenium. 150,000 starting cells were seeded in each passage on day 0, 4 and 7. (E) Human H1 cells were grown in DMEM/F12, NaHCO3, Insulin, FGF2, LAA and selenium with or without NODAL for four passages, and OCT4 expression was analyzed by FACS. Green peak: anti-OCT4 primary antibody with Alexa-488 secondary antibody; unshaded peak: mouse IgG control. (F) Transferrin was tested with cloning assay in defined media (DMEM/F12, NaHCO3, Insulin, FGF2, LAA, and Selenium); human foreskin iPS cells (Yu et al., Science 318:1917-1920 (2007)) were used in this particular experiment with ROCK inhibitor HA100 (10 μM) in hypoxic conditions (*p<0.05, n=3). […] (G) E8 medium (Table 1), TESR™ and conditioned medium (CM) were tested by cloning assay with HA100 (*p<0.05, n=3). Hypoxia conditions (5% O2 and 10% CO2, red column) and normoxic conditions (5% CO2, blue column) were used in the test (*p<0.05, n=3). […] (H) E8 medium and TESR™ were used to culture ES and iPS cells for long-term expansion, and the proliferation dynamics was recorded in the first seven passages. 200,000 H1 and human foreskin iPS cells (Yu et al., Science 324:797-801 (2009)) were plated in each passage in E8 and TESR™ media in hypoxic conditions.
H1 cells were maintained in specific media for 5 days (2 passages), and RNA was purified for qRT-PCR to detect NANOG expression relative to GAPDH. […] A variety of basic media were used to make growth media with additional components (insulin, FGF2, LAA, Selenium, and NaHCO3). Dissociated H1 cells were plated in different media on […]-coated plates. […] Green peak: OCT4 antibody with Alexa-488 conjugated secondary antibody; Grey peak: mouse IgG control. […] Cells were treated with HA100 (10 μM) and Y27632) (10 μM) for 24 hours, and with blebbistatin (10 μM) for 4 hours (*p<0.05, n=3).

human foreskin iPS cells = assay: Cloning assay in defined media with transferrin; type: cell-based; conditions: defined media with HA100 (10 μM), hypoxic conditions; FIG. 4F
Experimental: FIG. 4 presents media components supporting human ES cell survival and proliferation. (A) Dissociated H1 ES cells were plated into different media (Table 1) on MATRIGEL-coated plates, and cell survival was measured 24 hours after plating. […] (B) The same ES cells from FIG. 5A were cultured in the same media with daily media change, and proliferation was measured 96 hours after plating. […] (C) Dissociated cells were plated in three different media, and initial survival was measured 22 hours after plating (blue column) Proliferation was measured 129 hours after plating (red column) The three media were […] without L-ascorbic acid (TESR-LAA) and a simplified medium containing DMEM/F 12, NaHCO3 LAA, insulin and FGF2 (*p<0.05, n=3). (D) H1 cells were maintained in defined media (DMEM/F12, NaHCO3, Insulin, FGF2 and LAA) for multiple passages with or without selenium. 150,000 starting cells were seeded in each passage on day 0, 4 and 7. (E) Human H1 cells were grown in DMEM/F12, NaHCO3, Insulin, FGF2, LAA and selenium with or without NODAL for four passages, and OCT4 expression was analyzed by FACS. Green peak: anti-OCT4 primary antibody with Alexa-488 secondary antibody; unshaded peak: mouse IgG control. […] (H) E8 medium and […] were used to culture ES and iPS cells for long-term expansion, and the proliferation dynamics was recorded in the first seven passages. […]

[1] = tested on: NANOG expression in H1 cells; assay: NANOG expression by qRT-PCR relative to GAPDH; type: cell-based, human; conditions: NODAL 100 ng/ml or TGFβ 2 ng/ml in defined media; FIG. 6B
Experimental: FIG. 6 illustrates media components supporting human pluripotent stem cells. […] When those factors were removed, H1 ES cells survived (24 hours, blue columns) and proliferated (82 hours, red columns) as well as in TeSR. […] H1 cells were maintained in specific media for 5 days (2 passages), and RNA was purified for qRT-PCR to detect NANOG expression relative to GAPDH. (C) DMEM/F12 basic media is among the best basic media in the screen that supports human ES cell survival and proliferation. A variety of basic media were used to make growth media with additional components (insulin, FGF2, LAA, Selenium, and NaHCO3). Dissociated H1 cells were plated in different media on MATRIGEL-coated plates. Cell survival was measured at 24 hours (blue column) and cell proliferation at 52 hours (red column) (D) Defined media (DMEM/F12, insulin, FGF2, LAA, and Selenium) with NODAL supports pluripotency of human iPS cells. Flow cytometry detected high expression of pluripotency marker OCT4 in two iPS cell lines. Green peak: OCT4 antibody with Alexa-488 conjugated secondary antibody; Grey peak: mouse IgG control. Similar results were also obtained from H1 and H9 ES cells maintained in the same media. (E) Normal karyotypes were maintained after long-term passage for those iPS cells shown above. […] High OCT4 expression was detected in H1 and iPS cells. […]

human ES and iPS cells = assay: Long-term expansion of ES and iPS cells in defined medium; type: cell-based; conditions: for long-term culture stability of human ES and iPS cells: NODAL 100 ng/ml or TGFβ 2 ng/ml added to simple medium
Experimental: as §1, with “FIG. 5A were cultured in the same media with daily media change, and proliferation was measured 96 hours after plating.” for “FIG.”

[2] = added to defined medium, FIG. 6G
[3] = TESR components in absence of BSA and BME

Molecule: Cc1ccc2c(c1)C(=O)C1(O)CCN(c3ccccc3)C1=N2 (stereo not drawn) [blebbistatin, reference compound]
- cloning efficiency (H1 cells; [2]): supported a high cloning efficiency
- initial survival of human ES cells (H1 ES cells): improved initial survival

Molecule: NCCCC(=O)O [GABA]
- requirement for short-term survival (24 hours) and proliferation (82 hours) of human ES cells (H1 ES cells): not required for short-term survival and proliferation

Molecule: O=S(=O)(c1cccc2cnccc12)N1CCNCC1 [HA100, reference compound]
- cloning efficiency (H1 cells; E8 media, 10 μM for 24 hours, p<0.05, n=3): improved cloning efficiency as efficiently as Y27632 and blebbistatin
- cloning efficiency (H1 cells; [2]): supported a high cloning efficiency
- cell survival after dissociation (H1 ES cells; 10 μM, TeSR, p<0.05, n=3): improved cell survival after dissociation
- initial survival of human ES cells (H1 ES cells): improved initial survival

Molecule: Insulin: medium component
- cell survival and proliferation (H1 ES cells; [3]): remained important for cell survival and proliferation

Molecule: O=C(O)C1CCCCN1 (stereo not drawn) [Pipecolic acid]
- requirement for short-term survival (24 hours) and proliferation (82 hours) of human ES cells (H1 ES cells): not required for short-term survival and proliferation

Molecule: transferrin: protein medium component of E8
- cloning efficiency on addition of transferrin (human foreskin iPS cells): further increased

Molecule: O=C1O[C@H]([C@@H](O)CO)C(O)=C1O [L-ascorbic acid]
- ES cell proliferation (H1 ES cells; TESR components in absence of BSA and BME, FIG. 4C): promoted ES cell proliferation

Molecule: TGFβ
- requirement for short-term survival (24 hours) and proliferation (82 hours) of human ES cells (H1 ES cells): not required for short-term survival and proliferation
- NANOG expression levels [1]: increased NANOG expression levels
- long-term culture stability of human ES and iPS cells (human ES and iPS cells): consistent long-term culture stability

Molecule: [Se] [selenium]
- long-term sustained growth (human ES and iPS cells; defined media, multiple passages, FIG. 4D): necessary for long-term sustained growth

Molecule: C[C@@H](N)[C@H]1CC[C@H](C(=O)Nc2ccncc2)CC1 [Y27632, reference compound]
- cloning efficiency (H1 cells; [2]): supported a high cloning efficiency
- initial survival of human ES cells (H1 ES cells): improved initial survival

Molecule: [Cl-].[Li+] [LiCl]
- requirement for short-term survival (24 hours) and proliferation (82 hours) of human ES cells (H1 ES cells): not required for short-term survival and proliferation

Molecule: FGF2: growth factor medium component
- cell survival and proliferation (H1 ES cells; [3]): remained important for cell survival and proliferation

B1: NODAL: growth factor medium component, 100 ng/mL, interchangeable with TGFβ in E8 media (protein, UniProt Q96S42 238-347, looked up)
Nodal homolog: HHLPDRSQLCRKVKFQVDFNLIGWGSWIIYPKQYNAYRCEGECPNPVGEEFHPTNHAYIQSLLKRYQPHRVPSTCCAPVKTKPLSMLYVDNGRVLLDHHKDMIVEECGCL
- NANOG expression levels [1]: increased NANOG expression levels
- long-term culture stability of human ES and iPS cells (human ES and iPS cells): consistent long-term culture stability
